{
  "source": "patent US20230414611A1",
  "about": "“REFINED USES OF GABA A RECEPTOR MODULATORS IN TREATMENT OF FRAGILE X SYNDROME” (CHILDREN'S HOSPITAL MEDICAL CENTER, priority 2020, published 2023)",
  "key": {"[1]": {"test_system": "adults with Fragile X Syndrome (FXS)", "experiment": "RBANS list learning in AZD7325 clinical study", "type": "in vivo, human", "design": "key to RBANS list learning, difference of least squares means, Estimate: Baseline - Low: difference in raw score (number of words remembered); key to RBANS-LL score: raw score = number of words remembered; higher is better", "details": "for RBANS-LL score: undetectable FMRP male subjects (n=5), mean ± SD", "text": "This study aims at investigating the safety, tolerability, and blood pharmacodynamics of treatment with oral administration of AZD7325 in adults with Fragile X Syndrome (FXS). This study also investigates measures of efficacy and biomarkers during treatment.\nThe treatment conditions are provided Table 2 below:\nTable 5 below summarizes clinical measure RBANS List Learning scores from the 5 “undetectable” FMRP male subjects. RBANS List Learning is a verbal working memory task and raw scores provided indicate number of words remembered, with higher scores indicating more number of words remembered. Group average and standard deviation were obtained cross subjects per treatment type (Placebo/Low dose/High dose) and per visit, which are 1) baseline: before intake, 2) acute: after the first dosage, and 3) chronic: post 2-week daily dosage. Higher scores are clinically better."}, "[2]": {"test_system": "adults with Fragile X Syndrome (FXS)", "experiment": "Aberrant Behavior Checklist (ABC / ABC-C subscales)", "type": "in vivo, human", "details": "for ABC_C_Subscale_1 Irritability / ABC_C_Subscale_2 Lethargy / ABC_C_Subscale_3 Stereotypy / ABC_C_Subscale_4 Hyperactivity / ABC_C_Subscale_5 Inappropriate Speech: undetectable FMRP males (n=5), mean ± SD", "text": "Secondary Outcome Measures: • Change in the social withdrawal subscale score of the Aberrant Behavior Checklist (ABC) through the end of the study, approximately 12 weeks. The ABC is the gold standard parent/caregiver reported behavioral outcome measure for use in development disability clinical trials. • Change in the Pediatric Anxiety Rating Scale (PARS) through the end of the study, approximately 12 weeks. The PARS is the gold standard parent/caregiver reported anxiety outcome measure for use in Fragile X Syndrome clinical trials.\nThe Aberrant Behavior Checklist (ABC) is a standardized rating scale used for assessing problematic behavior designed for use in developmental disabilities, with validity for use in FXS (CITE). ABC-C is the original factor structure with 5 subscales: Irritability, Lethargy, Stereotypy, Hyperactivity, and Inappropriate Speech. See, e.g., Aman et al., J. Child Adolesc Psychopharmacol. 30(8):512-521 (2020), the relevant disclosures of which are incorporated by reference for the subject matter and purpose referenced herein. ABC was only assessed chronically (two weeks after treatment). Overall, no indication that ABC changed during chronic phase."}},
  "note": "Entries after “also recorded” stand apart in the source; their conditions may differ.",
  "data": [
    {"smiles": "CCCNC(=O)c1nnc2c(-c3c(F)cccc3OC)cccc2c1N", "note": "[AZD7325, 4-amino-8-(2-fluoro-6-methoxyphenyl)-N-propylcinnoline-3-carboxamide]", "values": [
      {"measurement": "RBANS list learning scores, trend", "setting": "[1]; all eligible subjects, low dose", "value": "might improve"},
      {"measurement": "performance on RBANS", "setting": "[1]; high dose", "value": "dose limiting effect"},
      {"measurement": "RBANS_LL change", "setting": "[1]; low dose, chronic, nondetectable FMRP subjects", "value": "all positive trended"},
      {"measurement": "memory as measured by the RBANS assay", "setting": "[1]; low dose, males", "value": "improved memory"},
      {"measurement": "RBANS LL score increase, low dose compared to high dose", "setting": "[1]; subgroup", "value": "e Low dose had greater score increase (benefit) than high dose, separating groups."},
      {"measurement": "RBANS list learning, difference of least squares means, Estimate: Baseline - Low", "setting": "[1]; subgroup of males (outlier removed), low dose 5 mg twice per day oral", "value": "−2.75"},
      {"measurement": "change of RBANS LL from baseline", "setting": "[1]; subgroup, high dose", "value": "c No change from baseline with high dose (direction is toward worsening, −2)"},
      {"measurement": "increase (benefit) of RBANS LL compared to placebo", "setting": "[1]; subgroup, low dose", "value": "d Low dose demonstrated increase of nearly 4 (benefit) compared to placebo"},
      {"measurement": "increase (benefit) of RBANS LL from baseline", "setting": "[1]; subgroup, low dose", "value": "b Low dose in this subgroup demonstrated an increase (benefit) of +2.75 of RBANS LL from baseline"},
      {"measurement": "RBANS-LL score", "setting": "[1]; high dose, acute (after the first dosage)", "value": "10.4 ± 7.40"},
      {"measurement": "RBANS-LL score", "setting": "[1]; high dose, baseline (before intake)", "value": "14.8 ± 8.32"},
      {"measurement": "RBANS-LL score", "setting": "[1]; high dose, chronic (post 2-week daily dosage)", "value": "12.2 ± 6.83"},
      {"measurement": "RBANS-LL score", "setting": "[1]; low dose, acute (after the first dosage)", "value": "13.2 ± 3.11"},
      {"measurement": "RBANS-LL score", "setting": "[1]; low dose, baseline (before intake)", "value": "10.6 ± 5.22"},
      {"measurement": "RBANS-LL score", "setting": "[1]; low dose, chronic (post 2-week daily dosage)", "value": "14.6 ± 6.80"},
      {"measurement": "ABC lethargy and social withdrawal", "setting": "[2]; low dose, patients having detectable peripheral FMRP", "value": "increases"},
      {"measurement": "ABC lethargy and social withdrawal", "setting": "[2]; low dose, patients having undetectable peripheral FMRP", "value": "reduction; also recorded: reduces"},
      {"measurement": "ABC irritability", "setting": "[2]; low dose, regardless of FMRP status (trending), baseline to chronic", "value": "reduction; also recorded: reduces"},
      {"measurement": "ABC_C_Subscale_1 Irritability", "setting": "[2]; high dose, baseline", "value": "7.6 ± 7.44"},
      {"measurement": "ABC_C_Subscale_2 Lethargy", "setting": "[2]; high dose, baseline", "value": "3.2 ± 3.11"},
      {"measurement": "ABC_C_Subscale_3 Stereotypy", "setting": "[2]; high dose, baseline", "value": "5.0 ± 1.87"},
      {"measurement": "ABC_C_Subscale_4 Hyperactivity", "setting": "[2]; high dose, baseline", "value": "9.4 ± 10.74"},
      {"measurement": "ABC_C_Subscale_5 Inappropriate Speech", "setting": "[2]; high dose, baseline", "value": "5.6 ± 4.56"},
      {"measurement": "ABC_C_Subscale_1 Irritability", "setting": "[2]; high dose, chronic", "value": "7.2 ± 5.36"},
      {"measurement": "ABC_C_Subscale_2 Lethargy", "setting": "[2]; high dose, chronic", "value": "1.8 ± 1.48"},
      {"measurement": "ABC_C_Subscale_3 Stereotypy", "setting": "[2]; high dose, chronic", "value": "3.4 ± 0.55"},
      {"measurement": "ABC_C_Subscale_4 Hyperactivity", "setting": "[2]; high dose, chronic", "value": "7.0 ± 9.06"},
      {"measurement": "ABC_C_Subscale_5 Inappropriate Speech", "setting": "[2]; high dose, chronic", "value": "4.4 ± 3.78"},
      {"measurement": "ABC_C_Subscale_1 Irritability", "setting": "[2]; low dose, baseline", "value": "7.6 ± 7.44"},
      {"measurement": "ABC_C_Subscale_2 Lethargy", "setting": "[2]; low dose, baseline", "value": "3.6 ± 2.97"},
      {"measurement": "ABC_C_Subscale_3 Stereotypy", "setting": "[2]; low dose, baseline", "value": "3.8 ± 2.28"},
      {"measurement": "ABC_C_Subscale_4 Hyperactivity", "setting": "[2]; low dose, baseline", "value": "7.8 ± 7.16"},
      {"measurement": "ABC_C_Subscale_5 Inappropriate Speech", "setting": "[2]; low dose, baseline", "value": "5.4 ± 4.16"},
      {"measurement": "ABC_C_Subscale_1 Irritability", "setting": "[2]; low dose, chronic", "value": "7.4 ± 8.02"},
      {"measurement": "ABC_C_Subscale_2 Lethargy", "setting": "[2]; low dose, chronic", "value": "4.6 ± 2.70"},
      {"measurement": "ABC_C_Subscale_3 Stereotypy", "setting": "[2]; low dose, chronic", "value": "4.6 ± 3.05"},
      {"measurement": "ABC_C_Subscale_4 Hyperactivity", "setting": "[2]; low dose, chronic", "value": "7.2 ± 8.07"},
      {"measurement": "ABC_C_Subscale_5 Inappropriate Speech", "setting": "[2]; low dose, chronic", "value": "4.6 ± 3.29"}
    ]}
  ]
}
